From patent publication EP1228077B1, “RUTHENIUM (II) COMPLEXES WITH HIGH ANTITUMORAL AND ANTIMETASTATIC ACTIVITIES” (priority 1999, dated 2001)

Columns and labels:
Format in all cases: in vivo
MCa mammary carcinoma [1] = experiment: Example 5: prevention of lung metastases in mice with MCa mammary carcinoma; conditions: lung metastases on day 23, i.p. treatment day 10 to 15; for Metastases Number: CBA/Lac female mice, 7 per group
Procedure: In a further experiment similar to the previous one, six groups of animals, each of them composed of 7 CBA/Lac kin female mice, weighing 23±3 g were inoculated on day 0 with cells of MCa mammary carcinoma, according to the protocol described in the previous example. From day 10 to day 15 after tumour implantation, the 6 groups of mice were treated intraperitoneally using a sterile insulin syringe, respectively with: • Group 1: […] RUT: 35 mg/kg body weight/die of Ruthenium (III) complex, (ImH)[trans-RuCl4(Me2SO)(Im)] in sterile and pyrogen-free physiological saline solution; • Group 5: […] The reducing agents glutathione and cysteine were used in an equivalent ratio of 1 with the Ruthenium (III) complex. The redox reaction was immediate. The administration took place after the analytical control of total reduction of the Ruthenium (III) to Ruthenium (II) complexes. On day 16 from tumour implantation, the growth of the primary tumour as described in the previous example was evaluated. On day 23 from tumour implantation, the mice were sacrificed and the metastases were evaluated as in previous example. The experimental data obtained were processed by appropriate statistical tests and reported in Table 2, wherein the number and weight of lung metastases obtained in the treated group of animals are also reported.

[2] = test system: Lewis lung carcinoma (LLC); experiment: Example 6: lung metastases in BD2F1 mice with Lewis lung carcinoma; conditions: day 20; treatment day 8 to 13
Procedure: Groups of 7 BD2F1 female mice were inoculated by means of intramuscular injection on day 0 with cells of Lewis lung carcinoma (LLC). From day 8 to day 13 the animals were treated with the Ruthenium (III) complex [trans-RuCl4(DMSO)(lm)](lmH), (compound of formula II) and with the Ruthenium (II) complex, trans-RuCl2(DMSO)4, both belonging to the state of the art. On day 20 from tumour implantation, the mice were sacrificed and the metastases evaluated. All the procedures of the experiments were carried out as reported in the previous examples.

MCa mammary carcinoma [3] = experiment: Example 4: prevention of lung metastases in mice with MCa mammary carcinoma; conditions: lung metastases on day 21, i.p. treatment day 12 to 17; for Metastases Number: CBA/Lac female mice, 6 per group
Procedure: Six groups composed of 6 CBA\Lac kin female mice, weighing 23±3 g were inoculated on day 0 with 10^6 viable cells (as determined with Trypan blue-exclusion test) of MCa mammary carcinoma, in 0.05 ml volume of Dulbecco's buffered at pH 7.4 calcium and magnesium-free saline physiological solution (D-PBS), by intramuscular injection with a sterile insulin syringe. The tumour cells derive from donors of the same strain, were transplanted with an insulin sterile syringe accordingly to the same procedure two weeks before. The tumour cells in PBS suspension were prepared by mechanical mincing of the tumour mass obtained from donor mice and by further removing tissue and cell debris by filtration through a double layer of sterile gauze and further centrifugation at 250xg for 10 minutes. The kin animals were derived from a colony obtained from Chester Beatthy, London (UK) and grown in the University of Trieste pound according to the procedures for the rearing of kin animals. The MCa mammary carcinoma tumour line derives from a stock, kept in liquid nitrogen, of tumour cells obtained originally from Rudjer Boskovic Institute, Zagreb (HR).
From day 12 to day 17 after tumour implantation, the six groups of mice were treated intraperitoneally using an insulin sterile syringe, respectively with: • Group 1. Control: […] body weight/die of sterile pyrogen-free physiological solution; • Group 2. ASC: 6.69 mg/kg body weight/die of ascorbic acid in sterile and pyrogen-free physiological solution; • Group 3. CYST: 12 mg/kg body weight/die of […] in sterile and pyrogen-free physiological solution; • Group 4. RUT: 35 mg/kg body weight/die of Ruthenium (III) complex, (lmH)[trans-RuCl4(Me2SO)(Im)] in pyrogen-free and sterile physiological solution; • Group 5. RUT-ASC: 35 mg/kg body weight/die of the Ruthenium (III) complex, (ImH)[trans-RuCl4(Me2SO)(Im)] and 12 mg/kg body weight/die of cysteine in sterile and pyrogen-free physiological saline solution; • Group 6. RUT-CYST: 35 mg/kg body weight/die of the Ruthenium (III) complex, (ImH)[trans-RuCl4(Me2SO)(Im)] and 12 mg/kg body weight/die of cysteine in sterile and pyrogen-free physiological saline solution.
The reducing agents ascorbic acid and cysteine were used in a equivalent ratio corresponding to 1 with the Ruthenium (III) complex. The redox reaction was immediate. The administration took place after analytical control of the complete reduction of the Ruthenium (III) complex to Ruthenium (II).
(§1) On day 17 from tumour implantation, the growth of the primary tumour was evaluated and the tumor surgically removed after general anaesthesia of the animals with ketamine. The tumor size was determined by measuring both orthogonal axes of the tumour by means of a caliber, the weight in grams of the rotation solid developed around these axes was measured, considering the tumour density equal to 1 and using the formula. (π/6).a^2.b, wherein a was the minor and b the major axis.
On day 21 from tumour implantation, the mice were sacrificed by cervical dislocation and lung metastases were analyzed. The lungs removed from the animal immediately after sacrifice, were divided in single lobes, which were then examined immediately with a low-magnification microscope equipped with an ocular-grid for the measurement of the metastases sizes from which the two orthogonal a and b axes (with a ≤b) are identified. The metastases were then grouped on the basis of their dimensions and the metastatic tumour weight was calculated as the sum of the weight of each single metastasis, each of them regarded as a rotation solid developed around the above mentioned axes, and with a volume calculated by the same formula used for the primary tumour. The experimental data obtained were therefore processed by appropriate statistical tests. The results are reported in Table 1 wherein the number and weight of lung metastases obtained in each group of animal are shown.

[4] = Example 7: systemic toxicity (body weight, spleen weight) in tumour-bearing mice
Procedure: Four groups, each of them composed of 7 CBA/Lac-kin female mice weighing 23±3 g on day 0 were inoculated with MCa mammary carcinoma cells according to the protocol described in the previous examples. From day 11 to day 16 after tumour implantation, the four groups of mice were treated intraperitoneally using a sterile insulin syringe, respectively with: • Group 1: Control: 10 ml/kg body weight/die of sterile and pyrogen-free physiological solution; • Group 2: CYST: 2 mg/kg body weight/die of cysteine in sterile and pyrogen-free physiological solution; • Group 3: RUT: 35 mg/kg body weight/die of Ruthenium (III) complex (lmH)[trans-RuCl4(Me2SO)(Im)] in sterile and pyrogen-free physiological solution; • Group 4: RUT-CYST: 35 mg/kg body weight/die of Ruthenium (III) complex , (ImH)[trans-RuCl4(Me2SO)(lm)] and 12 mg/kg body weight/die of cysteine in sterile and pyrogen-free physiological solution.
The reducing agent (cysteine) was used in a equivalent ratio of 1with the Ruthenium (III) complex. The redox reaction was immmediate.
The administration took place after analytical control of the complete reduction of the Ruthenium (III) to Ruthenium (II) complexes.
(§2) On day 17 from tumour implantation, the mice were sacrificed, the primary tumour and the spleen were removed and analysed as in the previous example. […]
The data reported in the Table 4 indicate how the body weight and the spleen weight, which are indicators of the systemic toxicity of the treatment, turned out to be more similar to the control (group 1) when the mice were treated with the Ruthenium (II) complexes according to the invention (group 4) than when treated with Ruthenium (III) (group 3) only.

MCa mammary carcinoma [5] = experiment: Example 7: primary tumour weight variation in mice with MCa mammary carcinoma; conditions: weight variation with respect to the controls, day 11 to day 17; i.p. treatment day 11 to 16
Procedure: as §1
Four groups, each of them composed of 7 CBA/Lac-kin female mice weighing 23±3 g on day 0 were inoculated with MCa mammary carcinoma cells according to the protocol described in the previous examples. […]
as §2

[6] = Example 8: systemic toxicity (body weight) in tumour-bearing mice
Procedure: Four groups each composed of 6 CBA/Lac kin female […] weighing 23±3 g. were inoculated on day 0 with tumour cells according to the protocol described in the previous examples. From day 12 to day 17, after tumour implantation, the four groups of mice were treated intraperitoneally using a sterile insulin syringe, respectively with: • Group 1: Control: 10 ml/kg body weight/die of sterile and pyrogen-free physiological solution; • Group 2: ASC: 6.69 mg/kg body weight/die of ascorbic acid in sterile and pyrogen-free physiological solution; • Group 3: RUT: 35 mg/kg body weight/die of Ruthenium (III) complex, (lmH)[trans-RuCl4(Me2SO)(Im)] in sterile and pyrogen-free physiological solution; • Group 4: RUT+ASC: 35 mg/kg body weight/die of Ruthenium (III) complex (lmH)[trans-RuCl4(Me2SO)(lm)] and 6.69 mg/kg body weight/ die of ascorbic acid in sterile and pyrogen-free physiological saline solution.
The reducing agent (ascorbic acid) was used in a equivalent ratio of 1 with the Ruthenium (III) complex. The redox reaction was immediate.
The administration took place after analytical control of the complete reduction of the Ruthenium (III) complex to Ruthenium (II).
On day 18 from tumour implantation, the primary tumour and the spleen were removed and weighed, as described previously.
The experiment confirms the lower toxicity of the Ruthenium (II) complexes of the invention (group 4) with respect to the prior art Ruthenium (III) complexes (group 3).

[7] = day 17, after i.p. treatment day 11 to 16

SMILES: N[C@@H](CCC(=O)N[C@@H](CS)C(=O)NCC(=O)O)C(=O)O [GLU, glutathione]
- %T/C (metastases weight in the treated animals/metastases weight in the controls) (MCa mammary carcinoma [1]): 75%
- Metastases Weight (MCa mammary carcinoma [1]): 138.8 ± 20.5 mg
- Metastases Number (MCa mammary carcinoma [1]): 47.0±3.9

SMILES: C[SH](C)(=O)[Ru]([Cl])([Cl])([SH](C)(C)=O)([SH](C)(C)=O)[SH](C)(C)=O [trans-RuCl2(DMSO)4]
- Lung Metastases Number %T/C [2]: 82%
- Lung Metastases Weight [2]: 85.5±19.3
- Lung Metastases Weight %T/C [2]: 45%

SMILES: N[C@@H](CS)C(=O)O [CYST, cysteine]
- %T/C (metastases weight in the treated animals/metastases weight in the controls) (MCa mammary carcinoma [3]): 103%
- Metastases Weight (MCa mammary carcinoma [3]): 94.6 ± 26 mg
- a.p./a.t (number of animals devoid of metastases/ total number of animals) (MCa mammary carcinoma [3]): 0/6
- Metastases Number (MCa mammary carcinoma [3]): 35.0± 13.5
- %T/C (metastases weight in the treated animals/metastases weight in the controls) (MCa mammary carcinoma [1]): 76%
- Metastases Weight (MCa mammary carcinoma [1]): 141.2 ± 15.1 mg
- Metastases Number (MCa mammary carcinoma [1]): 30.5±7.2
- % variation (body weight) ([4]; body weight variation with respect to the controls, day 11 to 17): -2.5%
- Body weight (day 11) ([4]; day 11, start of i.p. treatment): 30.5±0.6
- Body Weight (day 17) [4, 7]: 28.8±0.6
- Spleen weight (day 17) [4, 7]: 297± 3.3

SMILES: CS(C)=O.[Cl-].[Cl-].[Cl-].[Cl-].[Ru+3].c1c[nH+]c[nH]1.c1c[nH]cn1 [RUT, (ImH)[trans-RuCl4(Me2SO)(Im)]]
- %T/C (metastases weight in the treated animals/metastases weight in the controls) (MCa mammary carcinoma [3]): 16%
- Metastases Weight (MCa mammary carcinoma [3]): 15.2 ± 2.3 mg
- a.p./a.t (number of animals devoid of metastases/ total number of animals) (MCa mammary carcinoma [3]): 0/6
- Metastases Number (MCa mammary carcinoma [3]): 7.0± 1.9
- %T/C (metastases weight in the treated animals/metastases weight in the controls) (MCa mammary carcinoma [1]): 45%
- Metastases Weight (MCa mammary carcinoma [1]): 83.6 ± 4.5 mg
- Metastases Number (MCa mammary carcinoma [1]): 27.5±3.0
- Lung Metastases Number %T/C [2]: 38%
- Lung Metastases Weight [2]: 47.6±11.5
- Lung Metastases Weight %T/C [2]: 25%
- % Variation of the primary tumour (MCa mammary carcinoma [5]): -30.3%
- Body Weight (day 17) ([4]; mouse, in vivo, ip): 26.5±0.8
- Body weight (day 11) ([4]; mouse, in vivo, ip): 30.0±1.0
- Spleen weight (day 17) ([4]; mouse, in vivo, ip): 197± 8.8
- Body weight (day 12) ([6]; mouse, in vivo, ip): 27.0±0.9
- Body weight (day 18) ([6]; mouse, in vivo, ip): 23.3±0.8

SMILES: O=C1O[C@H]([C@@H](O)CO)C(O)=C1O [ASC, ascorbic acid]
- %T/C (metastases weight in the treated animals/metastases weight in the controls) (MCa mammary carcinoma [3]): 86%
- Metastases Weight (MCa mammary carcinoma [3]): 81.5 ± 14 mg
- a.p./a.t (number of animals devoid of metastases/ total number of animals) (MCa mammary carcinoma [3]): 0/6
- Metastases Number (MCa mammary carcinoma [3]): 18.3± 8.6
- Body weight (day 12) ([6]; day 12, start of i.p. treatment): 27.6±0.7
- Body weight (day 18) ([6]; day 18, after i.p. treatment day 12 to 17): 26.7±1.2
